Measured values from ChEMBL document CHEMBL6177994 (J Med Chem, 2025).
The source made the active and inactive calls. No cut-off for these calls is given here.

How the values were obtained:
PK-59 = assay: PROTAC activity at CRBN/KRAS G12D mutant in human PK-59 cells assessed as induction of KRAS G12D mutant degradation 0.01 to 100 nM measured after 24 hrs by immunoblot analysis; format: cell-based; conditions: dose 0.01-100 nM
[1] = Inhibition of ERK phosphorylation in human ASPC1 cells harbouring KRAS G12D mutant measured after 24 hrs; format: cell-based; conditions: ASPC1, 24 h
[2] = target: Protein cereblon/GTPase HRas (Homo sapiens) (UniProt P01112+Q96SW2); assay: PROTAC activity at CRBN/HRAS in human MKN-1 cells assessed as […] degradation 0.061 to 1000 nM measured after 24 hrs by immunoblot analysis; format: cell-based; conditions: dose 0.061-1000 nM
Sequence of Protein cereblon/GTPase HRas (Homo sapiens) (P01112 whole entry, looked up): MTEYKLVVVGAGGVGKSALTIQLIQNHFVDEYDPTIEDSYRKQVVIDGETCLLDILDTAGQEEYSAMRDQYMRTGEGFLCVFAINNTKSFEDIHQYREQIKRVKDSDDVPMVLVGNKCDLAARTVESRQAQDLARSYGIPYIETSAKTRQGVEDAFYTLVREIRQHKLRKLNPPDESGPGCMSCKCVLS
Sequence of Protein cereblon/GTPase HRas (Homo sapiens) (Q96SW2 whole entry, looked up): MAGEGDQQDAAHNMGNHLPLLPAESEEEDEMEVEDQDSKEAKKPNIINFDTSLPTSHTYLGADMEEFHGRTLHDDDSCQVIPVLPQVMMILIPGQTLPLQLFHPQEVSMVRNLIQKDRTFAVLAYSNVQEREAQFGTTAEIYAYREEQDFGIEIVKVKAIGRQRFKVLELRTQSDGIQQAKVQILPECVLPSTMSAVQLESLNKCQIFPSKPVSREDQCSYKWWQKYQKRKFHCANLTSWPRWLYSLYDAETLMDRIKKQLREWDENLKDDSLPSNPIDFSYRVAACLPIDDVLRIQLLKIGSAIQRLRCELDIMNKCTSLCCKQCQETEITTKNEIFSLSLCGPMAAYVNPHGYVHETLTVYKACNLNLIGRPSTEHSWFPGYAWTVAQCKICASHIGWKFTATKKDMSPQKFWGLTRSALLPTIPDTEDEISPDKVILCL

[3] = target: Protein cereblon/GTPase NRas (Homo sapiens) (UniProt P01111+Q96SW2); assay: PROTAC activity at CRBN/NRAS in human MKN-1 cells assessed as induction of […] 0.061 to 1000 nM measured after 24 hrs by immunoblot analysis; format: cell-based; conditions: dose 0.061-1000 nM
Sequence of Protein cereblon/GTPase NRas (Homo sapiens) (P01111 whole entry, looked up): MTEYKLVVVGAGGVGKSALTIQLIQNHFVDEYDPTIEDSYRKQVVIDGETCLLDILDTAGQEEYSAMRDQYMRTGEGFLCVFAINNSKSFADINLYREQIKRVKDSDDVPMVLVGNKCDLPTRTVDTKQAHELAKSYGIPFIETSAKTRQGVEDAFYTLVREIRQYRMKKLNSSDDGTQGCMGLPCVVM
Sequence of Protein cereblon/GTPase NRas (Homo sapiens) (Q96SW2 whole entry, looked up): as the sequence (Q96SW2 whole entry, looked up) above

ASPC1 [4] = assay: Effect on GSPT1 level in human ASPC1 cells at 10 nM measured after 8 hrs by Western blot analysis; format: functional, cell-based
ASPC1 [5] = assay: Potency index , ratio of MRTX1133 IC50 to test compound IC50 for antiproliferative activity against human ASPC1 cells assessed as inhibition of cell growth measured after 72 hrs by Cell titer glo method; format: functional
GTPase KRas = GTPase KRas (Homo sapiens, UniProt P01116, G12D); assay: Binding affinity to 6 His-tagged GDP-loaded human KRAS G12D mutant assessed as GDP-GTP exchange preincubated for 30 mins followed by GTP addition for 30 mins by HTRF method
Sequence of GTPase KRas (P01116 whole entry G12D): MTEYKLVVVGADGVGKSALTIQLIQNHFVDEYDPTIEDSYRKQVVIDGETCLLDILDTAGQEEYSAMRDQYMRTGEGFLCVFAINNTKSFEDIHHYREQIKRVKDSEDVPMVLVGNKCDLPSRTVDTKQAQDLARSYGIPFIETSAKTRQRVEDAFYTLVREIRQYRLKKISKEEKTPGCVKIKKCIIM

[6] = Toxicity in female Balb/c nude mouse xenografted with human PK-59 cells assessed as change in body weight at 0.1 to 3 mg/kg, iv QW measured after 28 days; format: organism-based; conditions: in vivo, 672 h, dose 0.1-3 mg/kg, time 28 day
[7] = Antitumor activity against human GP2d cells xenografted in female Balb/c nude mouse model assessed as tumor growth inhibition at 10 mg/kg, iv QW administered weekly and measured after 28 days relative to control; format: functional; conditions: 672 h, time 28 day, read-out: TGI
[8] = Toxicity in female Balb/c nude mouse xenografted with human GP2d cells assessed as change in body weight at 1 to 10 mg/kg, iv QW measured after 28 days; format: organism-based; conditions: in vivo, 672 h, dose 1-10 mg/kg, time 28 day
[9] = Toxicity in female Balb/c nude mouse xenografted with human GP2d cells assessed as change in body weight at 1 to 10 mg/kg, iv Q2W measured after 28 days; format: organism-based; conditions: in vivo, 672 h, dose 1-10 mg/kg, time 28 day
[10] = test system: Protein cereblon/GTPase KRas (Homo sapiens), P01116+Q96SW2 [G12D]; assay: In vivo PROTAC activity at CRBN/KRAS G12D mutant in male Balb/c nude mouse xenografted with human PK-59 cells assessed as degradation of KRAS G12D mutant at 10 mg/kg, iv measured up to 168 hrs relative to control; format: functional, organism-based
Sequence of Protein cereblon/GTPase KRas (Homo sapiens), P01116+Q96SW2 [G12D] (P01116 whole entry G12D): as above
Sequence of Protein cereblon/GTPase KRas (Homo sapiens), P01116+Q96SW2 [G12D] (Q96SW2 whole entry partner): as the sequence (Q96SW2 whole entry, looked up) above

[11] = test system: Protein cereblon/GTPase KRas (Homo sapiens), P01116+Q96SW2 [G12D]; assay: In vivo PROTAC activity at CRBN/KRAS G12D mutant in male Balb/c nude mouse xenografted with human PK-59 cells assessed as reduction in ERK phosphorylation level in tumor at 10 mg/kg, iv measured up to 168 hrs; format: functional, organism-based
[12] = test system: Protein cereblon/GTPase KRas (Homo sapiens), P01116+Q96SW2 [G12D]; assay: In vivo PROTAC activity at CRBN/KRAS G12D mutant in male Balb/c nude mouse xenografted with human PK-59 cells assessed as reduction in DUSP4 level in tumor at 10 mg/kg, iv measured up to 168 hrs relative to control; format: functional, organism-based; design: scale not given: the % may be the effect or the level left
[13] = Drug concentration in male Balb/c nude mouse plasma xenografted with human GP2d cells at 10 mg/kg, iv administered as single dose measured after 6 hrs by LC-MS/MS analysis; format: ADME, organism-based
[14] = test system: Protein cereblon/GTPase KRas (Homo sapiens), P01116+Q96SW2 [G12D]; assay: In vivo PROTAC activity at CRBN/KRAS G12D mutant in male Balb/c nude mouse xenografted with human GP2d cells assessed as increase in cleaved caspase 7 level at 10 mg/kg, iv measured after 7 days; format: functional, organism-based; conditions: time 7.0 day
[15] = Drug concentration in male Balb/c nude mouse tumor xenografted with human PK-59 cells at 10 mg/kg, iv administered as single dose measured after 168 hrs by LC-MS/MS analysis; format: ADME, organism-based, Neoplasm; conditions: read-out: Ct
[16] = Stability in human plasma assessed as half life at 1 uM measured up to 120 mins by LC-MS/MS analysis; format: ADME, cell-free
[17] = Metabolic stability in rat liver microsomes assessed as intrinsic clearance at 1 uM preincubated for 3 mins with NADPH and measured up to 60 mins by LC-MS/MS analysis; format: ADME, Microsome; conditions: time < 63 min, read-out: CLH
[18] = Metabolic stability in dog liver microsomes assessed as intrinsic clearance at 1 uM preincubated for 3 mins with NADPH and measured up to 60 mins by LC-MS/MS analysis; format: ADME, Canis lupus familiaris, Microsome; conditions: time < 63 min, read-out: CLH
[19] = Stability in human hepatocyte assessed as half life at 100 uM measured up to 120 mins by LC-MS/MS analysis; format: ADME, cell-based; conditions: hepatocytes
[20] = Stability in human hepatocyte assessed as intrinsic clearance at 100 uM measured up to 120 mins by LC-MS/MS analysis; format: ADME, cell-based; conditions: hepatocytes, read-out: CLH
Cytochrome P450 2B6 = Cytochrome P450 2B6 (Homo sapiens, UniProt P20813); assay: Inhibition of CYP2B6 in human liver microsomes using bupropion as substrate at 10 uM incubated for 20 mins in presence of NADPH by LC/MS analysis; format: ADME, Microsome
Sequence of Cytochrome P450 2B6 (P20813 whole entry): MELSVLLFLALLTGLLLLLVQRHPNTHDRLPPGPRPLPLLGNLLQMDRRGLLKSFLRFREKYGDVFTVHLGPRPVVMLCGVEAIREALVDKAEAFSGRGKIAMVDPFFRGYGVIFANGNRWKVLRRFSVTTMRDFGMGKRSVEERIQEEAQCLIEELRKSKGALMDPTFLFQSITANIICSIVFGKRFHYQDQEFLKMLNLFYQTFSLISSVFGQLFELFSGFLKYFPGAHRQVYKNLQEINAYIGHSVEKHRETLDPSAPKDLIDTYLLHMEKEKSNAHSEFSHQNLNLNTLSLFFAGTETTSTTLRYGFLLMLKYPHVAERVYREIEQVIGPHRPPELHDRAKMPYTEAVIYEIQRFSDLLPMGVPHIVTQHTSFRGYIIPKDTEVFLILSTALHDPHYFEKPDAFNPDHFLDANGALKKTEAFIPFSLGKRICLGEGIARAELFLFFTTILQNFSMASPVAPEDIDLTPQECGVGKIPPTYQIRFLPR

Cytochrome P450 3A4 [21] = target: T1, Cytochrome P450 3A4 (Homo sapiens, UniProt P08684); assay: Inhibition of CYP3A4 in human liver microsomes using midazolam as substrate at 10 uM incubated for 15 mins in presence of NADPH by LC/MS analysis; format: ADME, Microsome; conditions: 0.25 h
T1 sequence (P08684 whole entry): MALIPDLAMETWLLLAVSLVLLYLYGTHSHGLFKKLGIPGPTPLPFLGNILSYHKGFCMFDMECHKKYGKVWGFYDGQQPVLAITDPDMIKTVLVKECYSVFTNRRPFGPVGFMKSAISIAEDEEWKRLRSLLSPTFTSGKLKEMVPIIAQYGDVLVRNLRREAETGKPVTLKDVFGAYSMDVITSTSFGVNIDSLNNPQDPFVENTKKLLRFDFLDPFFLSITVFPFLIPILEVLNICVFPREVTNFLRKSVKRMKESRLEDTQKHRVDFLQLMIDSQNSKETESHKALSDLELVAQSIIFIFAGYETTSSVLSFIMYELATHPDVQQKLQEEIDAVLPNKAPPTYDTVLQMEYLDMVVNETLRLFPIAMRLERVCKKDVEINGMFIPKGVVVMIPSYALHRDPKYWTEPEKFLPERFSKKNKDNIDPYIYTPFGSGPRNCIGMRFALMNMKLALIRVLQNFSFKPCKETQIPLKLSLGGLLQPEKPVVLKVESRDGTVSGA

Cytochrome P450 3A4 [22] = target: T1, Cytochrome P450 3A4; assay: Inhibition of CYP3A4 in human liver microsomes using testosterone as substrate at 10 uM incubated for 15 mins in presence of NADPH by LC/MS analysis; format: ADME, Microsome; conditions: 0.25 h
[23] = Plasma protein binding in dog at 2 uM by LC-MS/MS analysis; format: ADME, cell-free, Canis lupus familiaris; conditions: read-out: PPB
[24] = Plasma protein binding in monkey at 2 uM by LC-MS/MS analysis; format: ADME, cell-free, Macaca mulatta; conditions: rhesus monkey, read-out: PPB
[25] = AUC (0 to t) in male ICR mouse at 1 mg/kg, iv measured up to 24 hrs by LC-MS/MS analysis; format: ADME, organism-based; conditions: in vivo
[26] = Clearance in male Sprague-Dawley rat at 1 mg/kg, iv measured up to 24 hrs by LC-MS/MS analysis; format: ADME, organism-based; conditions: in vivo
[27] = Half life in male Beagle dog at 1 mg/kg, iv measured up to 24 hrs by LC-MS/MS analysis; format: ADME, organism-based, Canis lupus familiaris; conditions: in vivo
[28] = Elimination half life in male ICR mouse pancreas at 10 mg/kg, iv measured up to 336 hrs by LC-MS/MS analysis; format: ADME, organism-based; conditions: read-out: beta t1/2 (converted)

For C#Cc1c(F)ccc2cc(O)cc(-c3ncc4c(N5CC6CCC(C5)N6)nc(OCC5(CN6CCC7(CC6)CC(N6CCC(c8cc9c(cc8F)c(N8CCC(=O)NC8=O)nn9C)CC6)C7)CC5)nc4c3F)c12, the Activity (PK-59) was “Active”, the IC50 [1] was 2.5 nM and the Activity [2] was “inactive”. The Activity [3] was “inactive”, the Activity (ASPC1 [4]) was “inactive” and the “Ratio IC50” value (ASPC1 [5]) was over 10. For the same molecule, the IC50 (GTPase KRas) was 6.34 nM, the Activity [6] was “Non-toxic” and the inhibition in vivo at 10 mg/kg [7] was 30.9%. The Activity [8] was “Non-toxic”, the Activity [9] was “Non-toxic” and the Activity [10] was 87.7%. For the same molecule, the Activity [11] was “Active”, the Activity [12] was 6.1% and the concentration at 6 h [13] was 113 ng/mL. The Activity [14] was “Active”, the concentration at 168 h [15] was 719 ng/g and the half-life at 1 µM [16] was 165 h. It also gave a CLint scaled at 1 µM [17] of 16.6 mL/min/kg, a CLint scaled at 1 µM [18] of 4.6 mL/min/kg and a half-life at 100 µM [19] of 7.27 h. The CLint scaled at 100 µM [20] was 5.8 mL/min/kg, the “inhibition (INH)” value (Cytochrome P450 2B6) was “Not_active” and the “inhibition (INH)” value (Cytochrome P450 3A4 [21]) was “Not_active”. For the same molecule, the “inhibition (INH)” value (Cytochrome P450 3A4 [22]) was “Not_active”, the fraction unbound at 2 µM [23] was under 0.05 and the fraction unbound at 2 µM [24] was under 0.05. The AUC(0-t) at 24 h [25] was 0.397 µM·h, the clearance [26] was 33 mL/min/kg and the half-life [27] was 15.6 h. For the same molecule, the half-life [28] was 330 h.
